Key:
M. grisea CM = assay: microbe, parasite or virus in culture; format: cell-based, Magnaporthe grisea; settings: for inhibition of growth at 5 µg/mL / inhibition of growth at 10 µg/mL / inhibition of growth at 25 µg/mL / inhibition of growth at 50 µg/mL: Pyricularia grisea, 24 h, read-out: Aktivität gegenüber M. grisea CM
M. grisea H2O = assay: microbe, parasite or virus in culture; format: cell-based, Magnaporthe grisea; settings: for inhibition of growth at 5 µg/mL / inhibition of growth at 10 µg/mL / inhibition of growth at 25 µg/mL / inhibition of growth at 50 µg/mL: Pyricularia grisea, H2O, 24 h, read-out: Aktivität gegenüber M. grisea H2O
Candida albicans = assay: Growth test in microtiter plates, HA medium, 24 h, visual evaluation; format: cell-based; design: key: +: kein Wachstum im Vergleich zur Wachstumskontrolle; -: Wachstum wie Wachstumskontrolle
Mucor miehei = assay: as above; format: cell-based; design: key to Aktivität gegenüber M. miehei: +: kein Wachstum im Vergleich zur Wachstumskontrolle; -: Wachstum wie Wachstumskontrolle
Penicillium notatum = assay: as above; format: cell-based; design: key: +: kein Wachstum im Vergleich zur Wachstumskontrolle; -: Wachstum wie Wachstumskontrolle
P. infestans = assay: microbe, parasite or virus in culture; format: cell-based, Phytophthora infestans; settings: for inhibition of growth at 5 µg/mL / inhibition of growth at 10 µg/mL / inhibition of growth at 25 µg/mL / inhibition of growth at 50 µg/mL: Phytophthora infestans, 24 h, read-out: Aktivität gegenüber P. infestans
Botrytis cinerea = assay: microbe, parasite or virus in culture; format: cell-based; settings: for inhibition of growth at 5 µg/mL / inhibition of growth at 10 µg/mL / inhibition of growth at 25 µg/mL / inhibition of growth at 50 µg/mL: Botrytis cinerea, 24 h, read-out: Aktivität gegenüber B. cinerea
Setaria italica = assay: Crop plant growth test, seeds on filter discs, 4 days, visual evaluation; format: in vivo
Summary of the method: (§1)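 Compounds dried from DMSO onto filter discs; about 12 seeds per well with 200 µl sterile tap water, incubated 4 days in a humid chamber under 16 h light/8 h dark. Visual scoring: + means at least 75 % growth inhibition versus control, − means less than 75 %.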

Lepidium sativum = assay: as above; format: in vivo
Summary of the method: as §1

Paecilomyces variotii = assay: Growth test in microtiter plates, HA medium, 24 h, visual evaluation; format: cell-based; design: key: +: kein Wachstum im Vergleich zur Wachstumskontrolle; -: Wachstum wie Wachstumskontrolle
M. grisea = format: cell-based, Magnaporthe grisea; settings: medium (H2O or CM) not stated
[1] = system: alle getesteten Pathogene; format: cell-based; settings: 5-50 µg/mL

SMILES | inhibition of growth at 5 µg/mL (M. grisea CM) [%] | inhibition of growth at 10 µg/mL (M. grisea CM) [%] | inhibition of growth at 25 µg/mL (M. grisea CM) [%] | inhibition of growth at 50 µg/mL (M. grisea CM) [%] | inhibition of growth at 5 µg/mL (M. grisea H2O) [%] | inhibition of growth at 10 µg/mL (M. grisea H2O) [%] | Aktivität gegenüber C. albicans (Candida albicans; 10µg/mL) | Aktivität gegenüber C. albicans (Candida albicans; 50µg/mL) | Aktivität gegenüber M. miehei (Mucor miehei; 10µg/mL) | Aktivität gegenüber M. miehei (Mucor miehei; 50µg/mL) | Aktivität gegenüber P. notatum (Penicillium notatum; 10µg/mL) | Aktivität gegenüber P. notatum (Penicillium notatum; 50µg/mL) | Aktivität gegenüber Nutzpflanzen: S. italica (Setaria italica; 10µg/R) | Aktivität gegenüber Nutzpflanzen: S. italica (Setaria italica; 20µg/R) | Aktivität gegenüber Nutzpflanzen: S. italica (Setaria italica; 50µg/R) | Aktivität gegenüber Nutzpflanzen: L. sativum (Lepidium sativum; 10µg/R) | Aktivität gegenüber Nutzpflanzen: L. sativum (Lepidium sativum; 20µg/R) | Aktivität gegenüber Nutzpflanzen: L. sativum (Lepidium sativum; 50µg/R) | Aktivität gegenüber P. variotii (Paecilomyces variotii; 10µg/mL) | Aktivität gegenüber P. variotii (Paecilomyces variotii; 50µg/mL) | further results
Cc1cc(C)c(O)c([Se]c2cc(C)cc(C)c2O)c1 [Verbindung 12, Bis(3,5-dimethyl-2-hydroxyphenyl)selen] | > 75 | > 75 | > 75 | > 75 | 0 to 25 | 0 to 25 | - | - | - | - | - | - | - (weniger als 75 % Wachstumshemmung im Vergleich zur Kontrolle) | - (weniger als 75 % Wachstumshemmung im Vergleich zur Kontrolle) | - (weniger als 75 % Wachstumshemmung im Vergleich zur Kontrolle) | - (weniger als 75 % Wachstumshemmung im Vergleich zur Kontrolle) | - (weniger als 75 % Wachstumshemmung im Vergleich zur Kontrolle) | - (weniger als 75 % Wachstumshemmung im Vergleich zur Kontrolle) | - | - | inhibition of growth at 25 µg/mL (M. grisea H2O): 0 to 25%; inhibition of growth at 50 µg/mL (M. grisea H2O): 0 to 25%; inhibition of growth at 5 µg/mL (P. infestans): 0 to 25%; inhibition of growth at 10 µg/mL (P. infestans): > 75%; inhibition of growth at 25 µg/mL (P. infestans): > 75%; inhibition of growth at 50 µg/mL (P. infestans): > 75%; inhibition of growth at 5 µg/mL (Botrytis cinerea; 5µg/mL): 0 to 25%; inhibition of growth at 10 µg/mL (Botrytis cinerea; 10µg/mL): 0 to 25%; inhibition of growth at 25 µg/mL (Botrytis cinerea; 25µg/mL): 0 to 25%; inhibition of growth at 50 µg/mL (Botrytis cinerea; 50µg/mL): 0 to 25%; Aktivität gegenüber M. grisea (M. grisea): hohe Aktivität
Oc1c(F)cc(F)cc1[Se]c1cc(F)cc(F)c1O [Verbindung 25, Bis(3,5-difluoro-2-hydroxyphenyl)selen] |  |  |  |  |  |  | - | + | + | + | + | + | - (weniger als 75 % Wachstumshemmung im Vergleich zur Kontrolle) | + (mind. 75 % Wachstumshemmung im Vergleich zur Kontrolle) | - (weniger als 75 % Wachstumshemmung im Vergleich zur Kontrolle) | - (weniger als 75 % Wachstumshemmung im Vergleich zur Kontrolle) | + (mind. 75 % Wachstumshemmung im Vergleich zur Kontrolle) | - (weniger als 75 % Wachstumshemmung im Vergleich zur Kontrolle) | + | - | Aktivität gegenüber M. grisea CM (M. grisea CM; 5µg/mL): +++ (mehr als 75 % der Sporen nicht gekeimt); Aktivität gegenüber M. grisea CM (M. grisea CM; 10µg/mL): +++ (mehr als 75 % der Sporen nicht gekeimt); Aktivität gegenüber M. grisea CM (M. grisea CM; 25µg/mL): +++ (mehr als 75 % der Sporen nicht gekeimt); Aktivität gegenüber M. grisea CM (M. grisea CM; 50µg/mL): +++ (mehr als 75 % der Sporen nicht gekeimt); Aktivität gegenüber M. grisea H2O (M. grisea H2O; 5µg/mL): +++ (mehr als 75 % der Sporen nicht gekeimt); Aktivität gegenüber M. grisea H2O (M. grisea H2O; 10µg/mL): +++ (mehr als 75 % der Sporen nicht gekeimt); Aktivität gegenüber M. grisea H2O (M. grisea H2O; 25µg/mL): +++ (mehr als 75 % der Sporen nicht gekeimt); Aktivität gegenüber M. grisea H2O (M. grisea H2O; 50µg/mL): +++ (mehr als 75 % der Sporen nicht gekeimt); Aktivität gegenüber P. infestans (P. infestans; 5µg/mL): +++ (mehr als 75 % der Sporen nicht gekeimt); Aktivität gegenüber P. infestans (P. infestans; 10µg/mL): +++ (mehr als 75 % der Sporen nicht gekeimt); Aktivität gegenüber P. infestans (P. infestans; 25µg/mL): +++ (mehr als 75 % der Sporen nicht gekeimt); Aktivität gegenüber P. infestans (P. infestans; 50µg/mL): +++ (mehr als 75 % der Sporen nicht gekeimt); mikrobizide Wirksamkeit gegenüber B. cinerea (Botrytis cinerea): mikrobizide Wirksamkeit; Aktivität gegenüber B. cinerea (Botrytis cinerea; 5µg/mL): + (key: +++: mehr als 75 % der Sporen nicht gekeimt; ++: zwischen 50 und 75 % der Sporen nicht gekeimt; +: zwischen 25 und 50 % der Sporen nicht gekeimt; -: zwischen 0 und 25 % der Sporen nicht gekeimt); Aktivität gegenüber B. cinerea (Botrytis cinerea; 10µg/mL): +++ (key: +++: mehr als 75 % der Sporen nicht gekeimt; ++: zwischen 50 und 75 % der Sporen nicht gekeimt; +: zwischen 25 und 50 % der Sporen nicht gekeimt; -: zwischen 0 und 25 % der Sporen nicht gekeimt); Aktivität gegenüber B. cinerea (Botrytis cinerea; 25µg/mL): +++ (key: +++: mehr als 75 % der Sporen nicht gekeimt; ++: zwischen 50 und 75 % der Sporen nicht gekeimt; +: zwischen 25 und 50 % der Sporen nicht gekeimt; -: zwischen 0 und 25 % der Sporen nicht gekeimt); Aktivität gegenüber B. cinerea (Botrytis cinerea; 50µg/mL): +++ (key: +++: mehr als 75 % der Sporen nicht gekeimt; ++: zwischen 50 und 75 % der Sporen nicht gekeimt; +: zwischen 25 und 50 % der Sporen nicht gekeimt; -: zwischen 0 und 25 % der Sporen nicht gekeimt); Effekt auf S. italica (Setaria italica; […]): deutlichen negativen Effekt; Effekt auf L. sativum (Lepidium sativum; […]): deutlichen negativen Effekt; Aktivität im Wachstums- und Keimungshemmungstest gegen die getesteten Pathogene [1]: durchgehende Aktivität gegen alle Pathogene
COc1cc(OC)c([Se]c2cc(OC)c(OC)cc2OC)cc1OC [Verbindung 26, Bis(2,4,5-trimethoxyphenyl)selen] | 25 to 50 | > 75 | > 75 | > 75 | 25 to 50 | > 75 | - | - | - | + | - | - | - (weniger als 75 % Wachstumshemmung im Vergleich zur Kontrolle) | - (weniger als 75 % Wachstumshemmung im Vergleich zur Kontrolle) | - (weniger als 75 % Wachstumshemmung im Vergleich zur Kontrolle) | - (weniger als 75 % Wachstumshemmung im Vergleich zur Kontrolle) | - (weniger als 75 % Wachstumshemmung im Vergleich zur Kontrolle) | - (weniger als 75 % Wachstumshemmung im Vergleich zur Kontrolle) | - | - | inhibition of growth at 25 µg/mL (M. grisea H2O): > 75%; inhibition of growth at 50 µg/mL (M. grisea H2O): > 75%; Aktivität im Wachstumstest mit M. miehei (Mucor miehei; […]): mikrobizide Wirksamkeit; inhibition of growth at 5 µg/mL (P. infestans): 0 to 25%; inhibition of growth at 10 µg/mL (P. infestans): 0 to 25%; inhibition of growth at 25 µg/mL (P. infestans): 0 to 25%; inhibition of growth at 50 µg/mL (P. infestans): 0 to 25%; Wirksamkeit gegenüber P. infestans (P. infestans; […]): keine Wirkung; inhibition of growth at 5 µg/mL (Botrytis cinerea; 5µg/mL): 0 to 25%; inhibition of growth at 10 µg/mL (Botrytis cinerea; 10µg/mL): 0 to 25%; inhibition of growth at 25 µg/mL (Botrytis cinerea; 25µg/mL): 0 to 25%; inhibition of growth at 50 µg/mL (Botrytis cinerea; 50µg/mL): 0 to 25%; Aktivität im Wachstums- und Keimungshemmungstest gegen die getesteten Pathogene [1]: fungizider Effekt
